From ChEMBL document CHEMBL1156770, “X-ray crystallographic analysis of alpha-ketoheterocycle inhibitors bound to a humanized variant of fatty acid amide hydrolase” (J Med Chem, 2010)

Biological target: T1, Fatty-acid amide hydrolase 1 (Homo sapiens, UniProt O00519)
T1 sequence (O00519 whole entry): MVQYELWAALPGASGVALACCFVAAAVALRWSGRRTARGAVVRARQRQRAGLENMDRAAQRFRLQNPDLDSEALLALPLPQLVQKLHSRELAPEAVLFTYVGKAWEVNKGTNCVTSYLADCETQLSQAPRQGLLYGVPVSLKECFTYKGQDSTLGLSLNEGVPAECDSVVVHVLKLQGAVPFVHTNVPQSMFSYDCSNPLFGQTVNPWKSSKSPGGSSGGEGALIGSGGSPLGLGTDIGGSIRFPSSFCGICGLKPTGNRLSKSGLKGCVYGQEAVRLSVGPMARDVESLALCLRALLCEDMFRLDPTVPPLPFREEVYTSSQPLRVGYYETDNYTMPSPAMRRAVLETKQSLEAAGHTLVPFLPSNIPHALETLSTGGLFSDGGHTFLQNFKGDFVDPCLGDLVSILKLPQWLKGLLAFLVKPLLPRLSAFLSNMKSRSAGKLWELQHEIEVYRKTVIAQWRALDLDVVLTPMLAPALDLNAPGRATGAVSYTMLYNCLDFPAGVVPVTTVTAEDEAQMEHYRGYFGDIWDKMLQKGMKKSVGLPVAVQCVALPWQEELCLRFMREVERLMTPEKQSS
Assay: Inhibition of FAAH

## CCCCCCCC/C=C\CCCCCCCC(=O)c1ncc(-c2ccccn2)o1
  Ki: 3 nM
